Values quoted from earlier work, collected in publication PMC2866165 (Nuclear medicine and biology, 2010).

Legend:
PDE3A = details: read-out: IC50 for PDE3A
PDE4D = details: read-out: IC50 for PDE4D

COc1ccc(Cc2nccc3cc(OC)c(OC)cc23)cc1OC [Papaverine, 1-(3,4-dimethoxybenzyl)-6,7-dimethoxyisoquinoline]
IC50 (PDE3A): 1300 nM
IC50 (PDE4D): 320 nM
Biological half-life in rat plasma: 15 min
